Measurements: paper PMC7265341, “Quantifying CDK inhibitor selectivity in live cells” (Nature Communications, 2020)
Where two headings read alike, the source gives them in different places.

Key:
[1] = molecular target: CDK19/Cyclin C (Homo sapiens, UniProt Q9BWU1); assay: NanoBRET live-cell target engagement, NanoLuc-CDK19/Cyclin C in HEK-293; details: 10µM
[2] = molecular target: CDK20/Cyclin H (Homo sapiens, UniProt Q8IZL9); assay: NanoBRET live-cell target engagement, NanoLuc-CDK20/Cyclin H in HEK-293; format: binding; details: CDK20/H, 10µM
[3] = molecular target: CDK13/Cyclin K (Homo sapiens, UniProt Q14004); assay: NanoBRET live-cell target engagement, CDK13-NanoLuc/Cyclin K in HEK-293; format: binding; details: CDK13/K, 10µM
Sequence of CDK13/Cyclin K (O75909 whole entry): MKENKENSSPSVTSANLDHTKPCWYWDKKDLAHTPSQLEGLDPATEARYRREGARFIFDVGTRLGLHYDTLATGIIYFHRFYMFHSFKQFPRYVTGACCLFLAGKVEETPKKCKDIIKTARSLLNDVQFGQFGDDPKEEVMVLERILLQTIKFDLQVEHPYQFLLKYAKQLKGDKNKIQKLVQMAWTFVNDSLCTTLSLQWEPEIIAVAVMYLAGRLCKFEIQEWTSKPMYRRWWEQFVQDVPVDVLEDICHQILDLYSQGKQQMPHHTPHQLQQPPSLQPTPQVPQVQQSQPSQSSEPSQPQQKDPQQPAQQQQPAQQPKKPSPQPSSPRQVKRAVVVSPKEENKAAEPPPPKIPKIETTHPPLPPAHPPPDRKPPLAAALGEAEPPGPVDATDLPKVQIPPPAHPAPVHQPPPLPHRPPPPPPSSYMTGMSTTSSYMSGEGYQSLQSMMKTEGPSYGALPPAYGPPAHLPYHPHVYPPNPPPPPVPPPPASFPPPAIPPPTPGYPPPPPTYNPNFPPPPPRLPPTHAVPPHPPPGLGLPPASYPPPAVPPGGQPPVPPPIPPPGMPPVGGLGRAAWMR
Sequence of CDK13/Cyclin K (Q14004 other isoform, or with tags, fused parts or gaps): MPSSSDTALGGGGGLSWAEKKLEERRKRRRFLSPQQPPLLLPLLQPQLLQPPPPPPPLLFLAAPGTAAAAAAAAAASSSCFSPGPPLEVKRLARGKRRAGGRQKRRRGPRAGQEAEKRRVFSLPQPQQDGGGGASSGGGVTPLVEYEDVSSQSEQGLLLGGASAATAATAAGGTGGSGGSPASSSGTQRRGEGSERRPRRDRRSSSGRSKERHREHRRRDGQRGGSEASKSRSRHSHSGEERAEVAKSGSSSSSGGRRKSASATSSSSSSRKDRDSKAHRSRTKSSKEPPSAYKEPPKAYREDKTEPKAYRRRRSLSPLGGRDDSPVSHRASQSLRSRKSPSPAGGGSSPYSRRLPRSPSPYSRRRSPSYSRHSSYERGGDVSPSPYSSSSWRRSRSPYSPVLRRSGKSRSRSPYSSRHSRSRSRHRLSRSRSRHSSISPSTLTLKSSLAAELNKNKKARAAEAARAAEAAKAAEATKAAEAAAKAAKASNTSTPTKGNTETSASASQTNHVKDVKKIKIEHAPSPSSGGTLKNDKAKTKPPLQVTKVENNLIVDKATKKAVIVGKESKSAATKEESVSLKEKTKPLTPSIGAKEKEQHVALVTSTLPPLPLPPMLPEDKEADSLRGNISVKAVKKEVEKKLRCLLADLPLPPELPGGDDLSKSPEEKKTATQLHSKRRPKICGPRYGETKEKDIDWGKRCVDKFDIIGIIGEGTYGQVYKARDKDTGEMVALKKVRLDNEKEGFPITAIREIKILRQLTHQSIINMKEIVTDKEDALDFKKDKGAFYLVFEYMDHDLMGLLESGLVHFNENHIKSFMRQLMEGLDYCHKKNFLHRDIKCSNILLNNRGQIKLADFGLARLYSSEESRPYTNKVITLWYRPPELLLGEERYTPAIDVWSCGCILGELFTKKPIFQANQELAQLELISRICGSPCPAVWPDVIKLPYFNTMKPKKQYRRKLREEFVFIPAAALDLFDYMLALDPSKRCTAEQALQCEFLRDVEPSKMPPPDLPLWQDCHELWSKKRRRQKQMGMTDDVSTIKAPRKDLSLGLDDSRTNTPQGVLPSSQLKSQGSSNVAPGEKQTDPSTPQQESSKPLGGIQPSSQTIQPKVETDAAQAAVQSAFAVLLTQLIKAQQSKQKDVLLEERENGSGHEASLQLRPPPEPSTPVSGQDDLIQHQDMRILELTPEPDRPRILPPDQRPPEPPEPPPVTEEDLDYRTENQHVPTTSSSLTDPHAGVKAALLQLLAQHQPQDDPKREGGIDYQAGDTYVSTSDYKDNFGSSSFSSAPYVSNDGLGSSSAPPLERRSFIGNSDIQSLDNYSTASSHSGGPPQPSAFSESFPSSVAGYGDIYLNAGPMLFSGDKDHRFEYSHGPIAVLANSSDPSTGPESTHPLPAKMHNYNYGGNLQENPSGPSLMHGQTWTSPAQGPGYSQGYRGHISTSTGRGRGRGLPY

[4] = molecular target: CDK5/CDK5R1 (Homo sapiens, UniProt Q00535); assay: NanoBRET live-cell target engagement, CDK5-NanoLuc/CDK5R1 in HEK-293; format: binding; details: CDK5/CDK5R1, 10µM
[5] = molecular target: CDK11B/Cyclin L2 (Homo sapiens, UniProt P21127); assay: NanoBRET live-cell target engagement, CDK11B-NanoLuc/Cyclin L2 in HEK-293; format: binding; details: CDK11b/L2, 10µM
[6] = molecular target: CDK17/Cyclin Y (Homo sapiens, UniProt Q00537); assay: NanoBRET live-cell target engagement, CDK17-NanoLuc/Cyclin Y in HEK-293; format: binding; details: CDK17/Y, 10µM
[7] = molecular target: CDK8/Cyclin C (Homo sapiens, UniProt P49336); assay: NanoBRET live-cell target engagement, NanoLuc-CDK8/Cyclin C in HEK-293; format: binding; details: CDK8/C, 10µM
[8] = molecular target: CDK16/Cyclin Y (Homo sapiens, UniProt Q00536); assay: NanoBRET live-cell target engagement, CDK16-NanoLuc/Cyclin Y in HEK-293; format: binding; details: CDK16/Y, 10µM
[9] = molecular target: CDK15/Cyclin Y (Homo sapiens, UniProt Q96Q40); assay: NanoBRET live-cell target engagement, NanoLuc-CDK15/Cyclin Y in HEK-293; format: binding; details: CDK15/Y, 10µM
[10] = molecular target: CDK18/Cyclin Y (Homo sapiens, UniProt Q07002); assay: NanoBRET live-cell target engagement, CDK18-NanoLuc/Cyclin Y in HEK-293; format: binding
Sequence of CDK18/Cyclin Y (Q07002 whole entry): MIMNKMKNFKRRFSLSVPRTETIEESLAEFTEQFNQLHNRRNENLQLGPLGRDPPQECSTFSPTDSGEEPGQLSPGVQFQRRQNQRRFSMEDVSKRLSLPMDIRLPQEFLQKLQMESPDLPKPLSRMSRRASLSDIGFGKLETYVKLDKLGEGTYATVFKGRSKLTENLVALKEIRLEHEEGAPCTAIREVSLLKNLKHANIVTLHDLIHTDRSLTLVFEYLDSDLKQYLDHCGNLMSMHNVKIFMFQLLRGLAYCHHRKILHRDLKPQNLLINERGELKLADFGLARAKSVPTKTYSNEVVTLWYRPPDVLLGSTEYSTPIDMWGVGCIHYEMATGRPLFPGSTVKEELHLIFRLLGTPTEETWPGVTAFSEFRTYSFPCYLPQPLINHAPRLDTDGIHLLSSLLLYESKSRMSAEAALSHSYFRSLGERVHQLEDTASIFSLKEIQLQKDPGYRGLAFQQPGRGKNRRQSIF
Sequence of CDK18/Cyclin Y (Q8ND76 whole entry partner): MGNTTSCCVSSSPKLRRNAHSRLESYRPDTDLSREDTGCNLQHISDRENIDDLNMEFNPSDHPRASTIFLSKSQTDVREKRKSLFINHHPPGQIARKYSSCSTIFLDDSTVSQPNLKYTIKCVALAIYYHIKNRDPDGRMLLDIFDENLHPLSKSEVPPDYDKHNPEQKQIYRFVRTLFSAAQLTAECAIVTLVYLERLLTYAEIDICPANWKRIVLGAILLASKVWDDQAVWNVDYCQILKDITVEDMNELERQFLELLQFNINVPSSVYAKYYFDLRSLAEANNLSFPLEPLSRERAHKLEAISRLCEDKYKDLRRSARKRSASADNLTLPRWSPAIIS

[11] = molecular target: T1, CDK11A/Cyclin L2 (Homo sapiens, UniProt Q9UQ88); assay: NanoBRET live-cell target engagement, CDK11A-NanoLuc/Cyclin L2 in HEK-293; format: binding; details: CDK11a/L2, 10µM
T1 sequence (Q9UQ88 1-783): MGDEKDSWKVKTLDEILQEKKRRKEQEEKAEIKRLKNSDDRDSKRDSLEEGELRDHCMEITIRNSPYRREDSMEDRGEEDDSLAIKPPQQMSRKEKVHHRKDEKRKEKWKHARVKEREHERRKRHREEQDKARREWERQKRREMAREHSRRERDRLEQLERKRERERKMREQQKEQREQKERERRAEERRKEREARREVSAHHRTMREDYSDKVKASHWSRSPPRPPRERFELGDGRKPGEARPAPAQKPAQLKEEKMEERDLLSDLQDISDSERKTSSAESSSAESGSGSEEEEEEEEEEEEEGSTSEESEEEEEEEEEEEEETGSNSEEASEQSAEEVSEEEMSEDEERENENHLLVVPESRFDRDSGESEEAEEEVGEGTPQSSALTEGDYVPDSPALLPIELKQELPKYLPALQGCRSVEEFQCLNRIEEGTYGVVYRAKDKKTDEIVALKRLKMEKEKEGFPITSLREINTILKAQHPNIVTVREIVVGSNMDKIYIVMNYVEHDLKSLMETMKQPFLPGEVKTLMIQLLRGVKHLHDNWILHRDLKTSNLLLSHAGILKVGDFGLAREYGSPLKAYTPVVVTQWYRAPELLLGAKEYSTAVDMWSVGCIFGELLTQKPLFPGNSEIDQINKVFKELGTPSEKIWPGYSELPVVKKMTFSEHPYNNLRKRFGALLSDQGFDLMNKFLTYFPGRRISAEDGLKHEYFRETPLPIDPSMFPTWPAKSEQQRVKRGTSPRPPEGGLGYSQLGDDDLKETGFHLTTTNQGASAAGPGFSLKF

[12] = molecular target: CDK4/Cyclin D1 (Homo sapiens, UniProt P11802); assay: NanoBRET live-cell target engagement, NanoLuc-CDK4/Cyclin D1 in HEK-293; format: binding; details: CDK4/D1, 10µM
[13] = molecular target: CDK6/Cyclin D1 (Homo sapiens, UniProt Q00534); assay: NanoBRET live-cell target engagement, NanoLuc-CDK6/Cyclin D1 in HEK-293; format: binding; details: CDK6/D1, 10µM
Sequence of CDK6/Cyclin D1 (Q00534 whole entry): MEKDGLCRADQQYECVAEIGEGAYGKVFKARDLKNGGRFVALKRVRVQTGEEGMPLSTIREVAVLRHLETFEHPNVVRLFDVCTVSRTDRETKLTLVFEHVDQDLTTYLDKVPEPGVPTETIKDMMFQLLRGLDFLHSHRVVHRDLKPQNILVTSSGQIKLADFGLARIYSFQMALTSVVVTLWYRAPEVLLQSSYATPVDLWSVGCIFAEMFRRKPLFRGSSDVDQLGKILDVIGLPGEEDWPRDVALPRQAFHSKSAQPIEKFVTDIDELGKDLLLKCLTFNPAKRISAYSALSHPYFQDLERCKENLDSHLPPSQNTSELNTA
Sequence of CDK6/Cyclin D1 (P24385 whole entry partner): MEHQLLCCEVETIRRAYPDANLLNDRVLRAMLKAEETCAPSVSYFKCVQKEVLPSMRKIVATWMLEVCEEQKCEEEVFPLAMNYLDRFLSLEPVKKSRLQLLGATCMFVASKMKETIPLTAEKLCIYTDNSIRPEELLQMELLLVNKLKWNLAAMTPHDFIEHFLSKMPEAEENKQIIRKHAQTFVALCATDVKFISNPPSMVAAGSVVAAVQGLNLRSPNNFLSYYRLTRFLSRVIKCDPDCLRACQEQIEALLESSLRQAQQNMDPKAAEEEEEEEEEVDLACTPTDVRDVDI

[14] = molecular target: CDK12/Cyclin K (Homo sapiens, UniProt Q9NYV4); assay: NanoBRET live-cell target engagement, CDK12-NanoLuc/Cyclin K in HEK-293; format: binding; details: CDK12/K, 10µM
Sequence of CDK12/Cyclin K (Q9NYV4 1-1481 isoform Q9NYV4-2): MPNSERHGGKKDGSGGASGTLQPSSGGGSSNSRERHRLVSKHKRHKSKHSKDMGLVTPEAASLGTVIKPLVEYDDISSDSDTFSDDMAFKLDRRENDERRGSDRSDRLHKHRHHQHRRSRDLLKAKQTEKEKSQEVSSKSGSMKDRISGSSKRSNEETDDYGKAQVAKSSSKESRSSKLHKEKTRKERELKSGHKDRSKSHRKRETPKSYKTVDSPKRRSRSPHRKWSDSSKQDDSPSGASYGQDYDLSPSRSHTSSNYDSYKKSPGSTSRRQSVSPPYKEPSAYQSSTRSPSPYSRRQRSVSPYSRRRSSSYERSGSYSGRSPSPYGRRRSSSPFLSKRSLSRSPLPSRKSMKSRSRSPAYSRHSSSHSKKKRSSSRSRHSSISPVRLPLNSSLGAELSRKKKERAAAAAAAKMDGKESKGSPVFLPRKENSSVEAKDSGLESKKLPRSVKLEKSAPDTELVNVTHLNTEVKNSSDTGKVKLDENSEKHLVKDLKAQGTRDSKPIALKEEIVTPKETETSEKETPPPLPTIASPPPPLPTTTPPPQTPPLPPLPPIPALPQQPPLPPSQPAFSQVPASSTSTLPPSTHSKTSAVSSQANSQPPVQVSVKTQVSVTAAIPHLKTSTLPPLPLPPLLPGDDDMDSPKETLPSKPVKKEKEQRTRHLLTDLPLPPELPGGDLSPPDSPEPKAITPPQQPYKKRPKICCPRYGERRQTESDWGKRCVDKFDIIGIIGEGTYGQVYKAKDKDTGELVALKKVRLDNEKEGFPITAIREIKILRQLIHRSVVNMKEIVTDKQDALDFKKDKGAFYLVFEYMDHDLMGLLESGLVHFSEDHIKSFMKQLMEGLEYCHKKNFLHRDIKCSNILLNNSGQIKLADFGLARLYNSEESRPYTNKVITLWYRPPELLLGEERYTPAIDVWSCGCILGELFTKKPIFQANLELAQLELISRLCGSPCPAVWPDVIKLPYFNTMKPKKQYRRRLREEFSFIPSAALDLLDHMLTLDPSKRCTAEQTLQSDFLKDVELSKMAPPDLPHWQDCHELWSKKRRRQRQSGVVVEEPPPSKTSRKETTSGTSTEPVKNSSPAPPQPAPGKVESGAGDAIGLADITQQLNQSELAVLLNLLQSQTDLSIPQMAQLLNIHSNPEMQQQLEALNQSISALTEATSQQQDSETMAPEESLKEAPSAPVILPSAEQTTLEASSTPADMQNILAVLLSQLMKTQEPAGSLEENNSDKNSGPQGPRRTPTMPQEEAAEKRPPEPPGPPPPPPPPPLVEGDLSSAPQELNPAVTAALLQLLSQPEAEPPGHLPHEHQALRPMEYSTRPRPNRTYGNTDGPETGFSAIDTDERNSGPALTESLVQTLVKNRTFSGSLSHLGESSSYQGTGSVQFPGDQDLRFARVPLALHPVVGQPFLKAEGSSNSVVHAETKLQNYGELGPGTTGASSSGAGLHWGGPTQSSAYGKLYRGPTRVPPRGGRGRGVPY
Sequence of CDK12/Cyclin K (O75909 whole entry partner): as the sequence (O75909 whole entry) above

[15] = molecular target: CDK10/Cyclin L2 (Homo sapiens, UniProt Q15131); assay: NanoBRET live-cell target engagement, CDK10-NanoLuc/Cyclin L2 in HEK-293; details: 10µM
[16] = molecular target: CDK9/Cyclin K (Homo sapiens, UniProt P50750); assay: NanoBRET live-cell target engagement, NanoLuc-CDK9/Cyclin K in HEK-293; format: binding; details: CDK9/K, 10µM
[17] = read-out: Inhibition at 10µM (%) Replicate 1
[18] = read-out: Inhibition at 10µM (%) Replicate 2
[19] = average of replicates, read-out: Inhibition at 10µM (%) Average

`CCN1CCN(Cc2ccc(Nc3ncc(F)c(-c4cc(F)c5nc(C)n(C(C)C)c5c4)n3)nc2)CC1` [Abemaciclib] gave an inhibition at 10 µM ([1]; read-out: Inhibition at 10µM (%) Average, CDK19/C, average of replicates) of 40.7%, an inhibition at 10 µM ([1]; read-out: Inhibition at 10µM (%) Replicate 1, CDK19/C) of 41.9% and an inhibition at 10 µM ([1]; read-out: Inhibition at 10µM (%) Replicate 2, CDK19/C) of 39.5%. It also gave an inhibition at 10 µM [2, 17] of 8.8%, an inhibition at 10 µM [2, 18] of 28.5% and an inhibition at 10 µM [3, 19] of 7.8%. The inhibition at 10 µM [3, 17] was 5.2%, the inhibition at 10 µM [3, 18] was 10.4% and the inhibition at 10 µM [4, 19] was 40.9%. The inhibition at 10 µM [4, 17] was 38%, the inhibition at 10 µM [4, 18] was 43.8% and the inhibition at 10 µM [5, 19] was 27.7%. For the same compound, the inhibition at 10 µM [5, 17] was 27.9%, the inhibition at 10 µM [5, 18] was 27.6% and the inhibition at 10 µM [6, 19] was 83%. For the same compound, the inhibition at 10 µM [6, 17] was 83%, the inhibition at 10 µM [6, 18] was 82.9% and the inhibition at 10 µM [7, 19] was 35.7%. It also gave an inhibition at 10 µM [7, 17] of 27.2%, an inhibition at 10 µM [7, 18] of 44.2% and an inhibition at 10 µM [8, 17] of 86.3%. For the same compound, the inhibition at 10 µM [8, 18] was 85.8%, the inhibition at 10 µM [9, 19] was 57.4% and the inhibition at 10 µM [9, 17] was 57.3%. The inhibition at 10 µM [9, 18] was 57.5%, the inhibition at 10 µM ([10]; CDK18/Y, average of replicates, read-out: Inhibition at 10µM (%) Average) was 74.8% and the inhibition at 10 µM ([10]; CDK18/Y, read-out: Inhibition at 10µM (%) Replicate 1) was 73.2%. For the same compound, the inhibition at 10 µM ([10]; CDK18/Y, read-out: Inhibition at 10µM (%) Replicate 2) was 76.3%, the IC50 ([10]; CDK18/Y, read-out: IC50 (nM) Replicate 1) was 304 nM and the IC50 ([10]; IC50 (nM) Average*, CDK18/Y, n=3 average ± SEM, n=2 average to 2 significant figures) was 380 ± 60 nM. The IC50 ([10]; IC50 (nM) Replicate 2, CDK18/Y) was 350 nM, the IC50 ([10]; IC50 (nM) Replicate 3, CDK18/Y) was 496 nM and the inhibition at 10 µM [11, 19] was 21.8%. For the same compound, the inhibition at 10 µM [11, 17] was 19.9%, the inhibition at 10 µM [11, 18] was 23.7% and the inhibition at 10 µM [12, 19] was 99.6%. The inhibition at 10 µM [12, 17] was 100%, the inhibition at 10 µM [12, 18] was 99% and the inhibition at 10 µM [13, 19] was 99.4%. The inhibition at 10 µM [13, 17] was 99.4%, the inhibition at 10 µM [13, 18] was 99.4% and the inhibition at 10 µM [14, 19] was 11.6%. The inhibition at 10 µM [14, 17] was 10.3%, the inhibition at 10 µM [14, 18] was 12.8% and the inhibition at 10 µM ([15]; read-out: Inhibition at 10µM (%) Average, CDK10/L2, average of replicates) was 20.9%. The inhibition at 10 µM ([15]; read-out: Inhibition at 10µM (%) Replicate 1, CDK10/L2) was 21.5%, the inhibition at 10 µM ([15]; read-out: Inhibition at 10µM (%) Replicate 2, CDK10/L2) was 20.2% and the inhibition at 10 µM [16, 19] was 84.3%. For the same compound, the inhibition at 10 µM [16, 17] was 79.2% and the inhibition at 10 µM [16, 18] was 89.3%.
